This passage reports MIC and inhibition results from PMC7464559, “Synthesis, Optimization, Antifungal Activity, Selectivity, and CYP51 Binding of New 2-Aryl-3-azolyl-1-indolyl-propan-2-ols” (Pharmaceuticals, 2020).

In assay [1] the test system is CK98003 (Candida krusei). Kind of assay: Anti-Candida in vitro assay, CK98003. The assay is classed as cell-based. As to conditions: Pichia kudriavzevii; Candida krusei CK98003, mean of triplicate; read-out: MIC (IC80) CK98003. The procedure, abridged: (§1)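 In this assay, compounds diluted in MOPS-buffered RPMI 1640 act on 10^3 cells/mL for 24 h at 37 °C. Growth is scored fluorimetrically with Alamar Blue (4 h, 550/590 nm).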

For assay [2], the system named is CA98002 (Candida albicans). Kind of assay: Anti-Candida in vitro assay, CA98002. The assay is classed as cell-based. Conditions: Candida albicans CA98002, mean of triplicate; read-out: MIC (IC80) CA98002. An outline of the steps:
as §1

The target of assay [3] is T1, 17α-hydroxylase/17,20-lyase (CYP17) (Homo sapiens, UniProt P05093).
T1 sequence (P05093 1-508): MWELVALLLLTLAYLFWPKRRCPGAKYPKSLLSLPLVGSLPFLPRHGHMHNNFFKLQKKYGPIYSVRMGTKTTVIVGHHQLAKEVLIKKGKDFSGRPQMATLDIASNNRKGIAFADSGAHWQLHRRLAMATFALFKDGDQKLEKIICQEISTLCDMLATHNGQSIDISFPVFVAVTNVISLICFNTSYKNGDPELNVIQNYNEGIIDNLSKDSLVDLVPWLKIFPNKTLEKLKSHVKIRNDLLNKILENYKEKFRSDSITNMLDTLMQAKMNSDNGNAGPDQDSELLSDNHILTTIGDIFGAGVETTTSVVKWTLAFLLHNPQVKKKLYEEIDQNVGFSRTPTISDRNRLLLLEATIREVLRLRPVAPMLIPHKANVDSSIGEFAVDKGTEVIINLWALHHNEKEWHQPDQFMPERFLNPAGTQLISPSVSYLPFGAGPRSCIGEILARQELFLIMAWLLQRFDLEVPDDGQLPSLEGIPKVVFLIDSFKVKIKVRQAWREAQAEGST
Kind of assay: In vitro inhibition of 17α-hydroxylase/17,20-lyase. The assay is classed as biochemical. Conditions: at 2.5 µM.
Experimental: The assay was performed similar to described methods [29, 52]. […] Microsomal protein was added to start the reaction. […] After the addition of 1 mL EtOAc, the vials were shaken then centrifuged. The organic phase was removed, vortexed with phosphate buffer (250 µL), 1 M aqueous HCl (50 µL), and then dried. Aliquots of 25 µL methanol, containing 250 pmol of fluorocortisol acetate as internal standard, were added to the extracts. The samples (20 µL) were submitted to HPLC (RP-8 column, methanol/water 1:1, v/v) and measured using UV (240 nm).

The target in assay [4] is T2, aromatase (CYP19) (Homo sapiens, UniProt P11511).
T2 construct: Microsomal protein (0.1 mg) was added to start the reaction; from tissue; host or cells: microsomes; ('human placental microsomes')
T2 sequence (P11511 1-503): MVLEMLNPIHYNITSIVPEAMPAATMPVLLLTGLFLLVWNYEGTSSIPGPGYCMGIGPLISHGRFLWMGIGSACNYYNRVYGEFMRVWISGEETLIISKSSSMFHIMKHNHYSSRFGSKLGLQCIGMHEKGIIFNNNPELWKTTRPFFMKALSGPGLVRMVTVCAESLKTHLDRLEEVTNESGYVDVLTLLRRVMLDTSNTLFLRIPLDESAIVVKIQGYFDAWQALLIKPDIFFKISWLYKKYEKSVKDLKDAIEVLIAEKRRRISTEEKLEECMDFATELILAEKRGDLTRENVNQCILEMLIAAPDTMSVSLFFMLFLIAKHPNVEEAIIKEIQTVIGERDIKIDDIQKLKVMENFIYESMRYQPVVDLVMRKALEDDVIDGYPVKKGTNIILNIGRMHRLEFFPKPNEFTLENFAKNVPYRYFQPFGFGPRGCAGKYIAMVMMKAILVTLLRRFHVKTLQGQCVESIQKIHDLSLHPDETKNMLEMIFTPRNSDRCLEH
Kind of assay: In vitro inhibition of aromatase. The assay is classed as biochemical. Conditions: at 36 µM.
Experimental: The assay was performed according to previously described methods [49, 50, 51] by monitoring the enzyme activity by measuring the ^3H2O formed from [1β-^3H]androstenedione during aromatization. […] Microsomal protein (0.1 mg) was added to start the reaction. After incubation of 15 min at 30 °C, the reaction was stopped by adding 200 µL of a cold HgCl2 solution (1 mM). After the addition of 200 µL of an aqueous dextran-coated charcoal (DCC) suspension (2%), the vials were shaken then centrifuged to separate the charcoal-absorbed steroids. Aliquots of the supernatant were assayed for ^3H2O by counting in a scintillation mixture using a LKB-Wallac β-counter.

Assay [5] has as its system CL98001 (Candida lusitaniae). Kind of assay: Anti-Candida in vitro assay, CL98001. As to conditions: Clavispora lusitaniae; Candida lusitaniae CL98001, mean of triplicate; read-out: MIC (IC80) CL98001. The format is cell-based. The procedure, abridged: as §1

A word on the MIC: it is the lowest concentration that inhibits growth of the organism. For orientation: inhibition means the change of the read-out against control, counted positive when it falls.

SMILES strings stand for the structures. Converted amounts (≈) assume the structure as drawn.

On to `O[C@@](Cn1cncn1)(Cn1ccc2ccccc21)c1ccc(Cl)cc1Cl` [(+)-(R)-8g], for which the MIC is 19.4 µg/mL (≈ 50 µM) in assay [1], 2.75 µg/mL (≈ 7.1 µM) in assay [2] and 9.68 µg/mL (≈ 25 µM) in assay [5]. This molecule had an inhibition at […] in assay [3] below 5%. Also, the inhibition at 36 µM in assay [4] turned out to be 51%.

On to `O[C@](Cn1cncn1)(Cn1ccc2ccccc21)c1ccc(Cl)cc1Cl` [(−)-(S)-8g], for which the MIC was 0.039 µg/mL (≈ 0.101 µM) in assay [1], below 0.039 µg/mL in assay [2] and 0.024 µg/mL (≈ 0.062 µM) in assay [5]. Also, the inhibition at […] in assay [3] is below 5%. The molecule further registered an inhibition at 36 µM in assay [4] of 72%.

`OC(Cn1cncn1)(Cn1ccc2ccccc21)c1ccc(Cl)cc1Cl` (stereo not drawn) [Compound 8g, 2-(2,4-Dichlorophenyl)-3-(1H-indol-1-yl)-1-(1H-1,2,4-triazol-1-yl)-propan-2-ol]: the MIC in assay [1] was 3.56 µg/mL (≈ 9.2 µM); in assay [2], below 0.004 µg/mL; in assay [5], below 0.004 µg/mL. In assay [3], this molecule had an inhibition at […] below 10%. The same molecule came in with an inhibition at 36 µM in assay [4] of 27%.
